The record followed here is patent US20240425518A1, “N-MACROCYCLIC AMIDE COMPOUNDS, PREPARATION METHODS THEREOF AND APPLICATIONS THEREOF AS MEDICAMENTS” (Chengdu FANXI Biopharma Co., Ltd., priority 2023, published 2024).

Positions count from the first letter of the chain named.

The conditions of data set [1]: from C=CCOCc1cc(NC(=O)OC(C)(C)C)cc(Nc2nccc(-c3cccc(COCC=C)c3)n2)c1; rcm bond; Zhan Catalyst 1B; dichloromethane; 6.66 mM; 50.0 °C; 3.0 h.
A further data set concerns the target T1, Flt3 (D835Y) (h) (Homo sapiens, UniProt P36888, D835Y).
T1 construct: purchased Eurofins
T1 sequence (P36888 27-993 D835Y): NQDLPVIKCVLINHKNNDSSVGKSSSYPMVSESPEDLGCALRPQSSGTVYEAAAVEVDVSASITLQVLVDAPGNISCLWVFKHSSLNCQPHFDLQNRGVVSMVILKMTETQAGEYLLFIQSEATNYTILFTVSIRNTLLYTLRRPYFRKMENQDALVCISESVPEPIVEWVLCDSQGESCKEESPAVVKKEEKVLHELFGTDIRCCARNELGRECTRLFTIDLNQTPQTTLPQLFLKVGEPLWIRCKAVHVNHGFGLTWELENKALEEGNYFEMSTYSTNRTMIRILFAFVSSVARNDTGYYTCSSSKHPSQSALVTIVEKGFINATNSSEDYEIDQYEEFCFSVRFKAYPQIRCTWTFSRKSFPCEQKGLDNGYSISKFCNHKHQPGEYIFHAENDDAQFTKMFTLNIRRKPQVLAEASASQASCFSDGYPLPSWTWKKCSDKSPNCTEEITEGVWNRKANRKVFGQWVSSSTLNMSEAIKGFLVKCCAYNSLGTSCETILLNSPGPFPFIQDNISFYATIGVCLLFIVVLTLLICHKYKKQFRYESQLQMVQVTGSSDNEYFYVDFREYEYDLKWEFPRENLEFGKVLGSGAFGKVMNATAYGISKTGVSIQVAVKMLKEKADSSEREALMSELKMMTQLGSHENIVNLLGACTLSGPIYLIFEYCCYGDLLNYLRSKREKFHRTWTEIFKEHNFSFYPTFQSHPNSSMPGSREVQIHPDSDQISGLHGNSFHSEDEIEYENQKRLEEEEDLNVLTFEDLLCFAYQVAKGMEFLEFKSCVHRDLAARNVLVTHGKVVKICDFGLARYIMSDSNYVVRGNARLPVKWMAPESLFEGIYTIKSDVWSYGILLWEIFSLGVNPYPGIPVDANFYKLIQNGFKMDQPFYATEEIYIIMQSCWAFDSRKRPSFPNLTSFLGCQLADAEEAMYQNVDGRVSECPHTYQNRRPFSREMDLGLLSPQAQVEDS
The experiment in a line: Radioisotope labeling kinase assay (Eurofins), Flt3 (D835Y). The class given is biochemical. The conditions noted are these: 1 μM compound; read-out: Inhibitory activity per unit concentration/Activity % Flt3 (D835Y) (h). On the procedure: (§1) An activity to a human recombinant protein kinase of a series of compounds was determined by a radioisotope labeling method, which was provided by Eurofins Company. A compound to be detected was mixed with a corresponding protein kinase buffer (20 mM propyl sulfonate (MOPS, […].), 1 mM EDTA, 0.10 β-mercaptoethanol, 0.010 Brij-35, […], and 1 mg/mL BSA), the mixture was added into a reaction system (100 μM reaction substrate […], 8 mM MOPS with a pH value of 7.0, 10 mM MgAcetate, 0.2 mM EDTA, and a certain concentration of γ-^33P-ATP). After adding an MgATP composite solution, the reaction was started at room temperature for 40 minutes, and the reaction was terminated by adding 5 μl of […] solution. Then, 10 μl of reaction solution was dropwise added onto a filter and washed with 75 mM phosphoric acid solution for three times, 5 minutes each time, then washed with methanol once again, and dried and subjected to scintillation counting.

In a further data set the target is T2, Flt3 (h) (Homo sapiens, UniProt P36888).
T2 construct: purchased Eurofins
T2 sequence (P36888 27-993): T1 sequence (P36888 27-993 D835Y) with Y809D
As to the kind of experiment: Radioisotope labeling kinase assay (Eurofins), Flt3. The class given is biochemical. The conditions noted are these: 1 μM compound; read-out: Inhibitory activity per unit concentration/Activity % Flt3 (h). As for the experimental part: as §1

A further data set concerns the target T3, Ab1 (h) (Homo sapiens, UniProt P00519).
T3 construct: purchased Eurofins
As to the kind of experiment: Radioisotope labeling kinase assay (Eurofins), Ab1. Conditions: 1 μM compound; read-out: Inhibitory activity per unit concentration/Activity % Ab1 (h). Format: biochemical. On the procedure:
as §1

The next data set concerns the target T4, BTK (h) (Homo sapiens, UniProt Q06187).
T4 construct: purchased Eurofins
The experiment in a line: Radioisotope labeling kinase assay (Eurofins), BTK. Conditions: 1 μM compound; read-out: Inhibitory activity per unit concentration/Activity % BTK (h). The class given is biochemical. As for the experimental part:
as §1

The next data set addresses T5, JAK3 (h) (Homo sapiens, UniProt P52333).
T5 construct: purchased Eurofins
T5 sequence (P52333 1-1124): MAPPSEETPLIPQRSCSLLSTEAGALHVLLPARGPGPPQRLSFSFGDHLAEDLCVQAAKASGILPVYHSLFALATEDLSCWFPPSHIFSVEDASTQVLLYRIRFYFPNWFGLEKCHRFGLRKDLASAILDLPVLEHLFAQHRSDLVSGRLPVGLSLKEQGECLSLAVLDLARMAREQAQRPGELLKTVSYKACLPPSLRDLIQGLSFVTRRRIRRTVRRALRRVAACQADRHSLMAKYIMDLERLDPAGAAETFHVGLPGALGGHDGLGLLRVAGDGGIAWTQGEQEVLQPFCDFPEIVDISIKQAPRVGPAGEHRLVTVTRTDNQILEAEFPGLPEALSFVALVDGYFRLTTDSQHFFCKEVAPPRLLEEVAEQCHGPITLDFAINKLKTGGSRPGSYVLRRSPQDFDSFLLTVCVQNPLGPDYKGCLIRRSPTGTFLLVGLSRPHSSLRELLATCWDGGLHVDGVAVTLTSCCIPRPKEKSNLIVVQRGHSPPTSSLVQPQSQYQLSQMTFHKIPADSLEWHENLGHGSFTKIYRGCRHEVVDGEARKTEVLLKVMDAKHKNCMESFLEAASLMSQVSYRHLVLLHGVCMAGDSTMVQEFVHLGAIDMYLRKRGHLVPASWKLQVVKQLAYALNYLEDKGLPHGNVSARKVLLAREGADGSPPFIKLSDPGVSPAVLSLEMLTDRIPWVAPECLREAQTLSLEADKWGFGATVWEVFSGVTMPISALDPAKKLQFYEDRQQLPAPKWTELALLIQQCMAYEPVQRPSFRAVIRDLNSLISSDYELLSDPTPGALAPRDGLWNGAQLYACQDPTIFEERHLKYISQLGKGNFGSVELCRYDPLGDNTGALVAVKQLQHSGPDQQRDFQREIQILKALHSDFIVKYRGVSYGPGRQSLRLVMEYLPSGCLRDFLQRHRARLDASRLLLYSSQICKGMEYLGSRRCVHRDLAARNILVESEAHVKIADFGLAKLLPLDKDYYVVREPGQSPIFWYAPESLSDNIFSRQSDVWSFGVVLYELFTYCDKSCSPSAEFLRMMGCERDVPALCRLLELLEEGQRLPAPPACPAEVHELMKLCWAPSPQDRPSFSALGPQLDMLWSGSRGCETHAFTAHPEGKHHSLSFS
The experiment in a line: Radioisotope labeling kinase assay (Eurofins), JAK3. The class given is biochemical. Conditions: 1 μM compound; read-out: Inhibitory activity per unit concentration/Activity % JAK3 (h). On the procedure:
as §1

T4 sequence (Q06187 whole entry): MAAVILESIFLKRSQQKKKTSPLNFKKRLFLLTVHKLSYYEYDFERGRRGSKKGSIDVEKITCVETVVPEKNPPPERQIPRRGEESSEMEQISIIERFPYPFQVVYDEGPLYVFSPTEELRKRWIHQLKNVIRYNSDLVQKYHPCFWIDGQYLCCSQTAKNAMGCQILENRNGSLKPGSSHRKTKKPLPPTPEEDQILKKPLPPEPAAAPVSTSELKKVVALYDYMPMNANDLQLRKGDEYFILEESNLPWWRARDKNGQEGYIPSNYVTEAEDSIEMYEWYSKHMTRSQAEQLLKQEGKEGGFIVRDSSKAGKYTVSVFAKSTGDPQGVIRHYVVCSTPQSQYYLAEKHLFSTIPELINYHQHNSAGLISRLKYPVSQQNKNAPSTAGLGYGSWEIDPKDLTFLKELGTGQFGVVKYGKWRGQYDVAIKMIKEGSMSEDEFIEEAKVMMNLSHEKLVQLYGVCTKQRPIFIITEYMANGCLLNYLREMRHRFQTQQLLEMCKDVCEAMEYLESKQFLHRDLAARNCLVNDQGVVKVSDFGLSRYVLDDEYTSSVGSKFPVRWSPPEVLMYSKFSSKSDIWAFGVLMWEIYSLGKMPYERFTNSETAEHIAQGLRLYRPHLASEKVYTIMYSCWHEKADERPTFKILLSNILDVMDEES
T3 sequence (P00519 whole entry): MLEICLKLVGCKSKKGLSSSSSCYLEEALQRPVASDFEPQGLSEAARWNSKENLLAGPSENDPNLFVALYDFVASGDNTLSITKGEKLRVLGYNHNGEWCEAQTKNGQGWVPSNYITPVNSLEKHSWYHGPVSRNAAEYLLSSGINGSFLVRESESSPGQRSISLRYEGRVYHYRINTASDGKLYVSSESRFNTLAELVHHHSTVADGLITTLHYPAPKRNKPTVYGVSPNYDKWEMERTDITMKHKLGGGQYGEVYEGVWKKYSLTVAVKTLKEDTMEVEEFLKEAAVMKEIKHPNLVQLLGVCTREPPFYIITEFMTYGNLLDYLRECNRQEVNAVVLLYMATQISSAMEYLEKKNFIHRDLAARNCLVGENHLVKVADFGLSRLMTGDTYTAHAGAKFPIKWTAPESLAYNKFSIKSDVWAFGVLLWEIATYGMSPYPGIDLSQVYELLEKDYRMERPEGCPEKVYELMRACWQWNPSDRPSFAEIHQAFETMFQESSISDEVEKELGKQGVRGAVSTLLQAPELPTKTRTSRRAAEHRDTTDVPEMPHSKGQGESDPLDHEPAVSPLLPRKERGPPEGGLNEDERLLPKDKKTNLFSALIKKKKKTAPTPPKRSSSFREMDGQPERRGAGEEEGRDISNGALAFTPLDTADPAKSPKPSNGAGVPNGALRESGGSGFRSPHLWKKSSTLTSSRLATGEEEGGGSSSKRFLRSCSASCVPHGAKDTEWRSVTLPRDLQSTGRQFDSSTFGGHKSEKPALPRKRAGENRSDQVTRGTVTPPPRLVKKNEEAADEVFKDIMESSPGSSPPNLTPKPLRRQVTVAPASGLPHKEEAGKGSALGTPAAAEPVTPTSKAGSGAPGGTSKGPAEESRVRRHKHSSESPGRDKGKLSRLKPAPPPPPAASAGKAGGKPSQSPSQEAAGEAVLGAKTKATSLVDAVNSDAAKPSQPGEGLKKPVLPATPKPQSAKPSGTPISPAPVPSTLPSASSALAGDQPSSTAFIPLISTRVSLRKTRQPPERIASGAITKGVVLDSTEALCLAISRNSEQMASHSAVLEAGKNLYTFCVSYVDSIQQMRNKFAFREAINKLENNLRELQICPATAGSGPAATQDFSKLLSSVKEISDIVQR

In data set [1], `CC(C)(C)OC(=O)Nc1cc2cc(c1)Nc1nccc(n1)-c1cccc(c1)COCC=CCOC2` displayed a ring closure, yield of all isomers of 50%.

Regarding `NC1CCN(C/C=C/C(=O)Nc2cc3cc(c2)Nc2nccc(n2)-c2cccc(c2)COC/C=C/COC3)C1` (centres unmarked) [XVI-17], the activity at 1 µM at Flt3 (D835Y) (h) is 8%; at Flt3 (h) it was 16%; on Ab1 (h) it was -4%; at BTK (h), 17%; on JAK3 (h) it was 4%.

On to `CN1C/C=C/COCc2cccc(c2)-c2ccnc(n2)Nc2cc(cc(NC(=O)/C=C/C(F)(F)F)c2)C1` [XVI-29], for which the activity at 1 µM at Flt3 (D835Y) (h) came to 3%; at Flt3 (h), 10%; on Ab1 (h), 60%; on BTK (h), 78%; at JAK3 (h) it was 36%.
